Experimental data as given in patent US20260007133A1, “HERBICIDAL COMPOSITION COMPRISING AZINE COMPOUNDS” (BASF SE, priority 2022, published 2026).
“And” between values parts separate entries of the source, which are not always exact repeats. Equal entries are not always repeated. Where two headings read alike, the source gives them in different places.

Experiments:
Type in all cases: in vivo
Ambrosia artemisiifolia = test: Greenhouse pre-emergence (PRE) herbicidal test on AMBEL; settings: Ambrosia artemisiifolia, pre-emergence, PRE; for inhibition at 8 g/ha: use rate 8 gai/ha
Digitaria sanguinalis = test: Greenhouse post-emergence (POST) herbicidal test on DIGSA; settings: for pest or weed control at 2 g/ha: I-3 solo 2 gai/ha
Method in brief: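 Injury was rated visually on a 0–100 scale, where 0 is normal growth and 100 is complete above-ground kill, 20 days after treatment. Test plants at 3–15 cm height received a post-emergence spray of water-dispersed active from 5% emulsion concentrates. Pots held loamy sand with ~3.0% humus, at 10-25 °C or 20-35 °C depending on species.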

Galium aparine = test: Greenhouse pre-emergence (PRE) herbicidal test on GALAP; settings: Galium aparine, pre-emergence, PRE, GALAP
Method in brief: (§1)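 Damage was rated visually on a 0 to 100 scale at 20 days after treatment, where 0 meant normal growth and 100 meant no emergence or complete kill of above-ground parts. Compounds were applied in water to freshly sown loamy-sand pots.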

Geranium pusillum = test: Greenhouse pre-emergence (PRE) herbicidal test on GERPU; settings: Geranium pusillum, pre-emergence, GERPU PRE
Method in brief: as §1

Lolium multiflorum = test: Greenhouse pre-emergence (PRE) herbicidal test on LOLMU; settings: Lolium multiflorum, pre-emergence; for pest or weed control at 2 g/ha: I-3 solo 2 gai/ha
Method in brief: (§2)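 Visual 0–100 rating at 20 days after treatment; 0 = normal growth, 100 = no emergence or complete kill of shoots. Pre-emergent application to seeded pots of loamy sand (~3.0% humus), species-dependent temperature 10-25° C or 20-35° C.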

Euphorbia heterophylla = test: Greenhouse pre-emergence (PRE) herbicidal test on EPHHL; settings: Euphorbia heterophylla, pre-emergence
Method in brief: as §2

Abutilon theophrasti = test: Greenhouse pre-emergence (PRE) herbicidal test on ABUTH; settings: Abutilon theophrasti, pre-emergence, PRE; for pest or weed control at 2 g/ha: I-3 solo 2 gai/ha
Method in brief: as §2

## COc1c(Cl)cc(F)c(F)c1Nc1nc(N)nc(C(C)(C)F)n1 [Compound I-3]
Ambrosia artemisiifolia; 480 h, AMBEL, use rate 2 gai/ha, 20 DAT, read-out: solo application % activity
  inhibition at 2 g/ha: 10%
Ambrosia artemisiifolia; 480 h, AMBEL, 20 DAT, read-out: solo application % activity
  inhibition at 8 g/ha: 45%
Ambrosia artemisiifolia; 480 h, 20 DAT, read-out: % activity
  inhibition at 8 g/ha: 90%
Ambrosia artemisiifolia; AMBEL, use rate 4 gai/ha
  inhibition at 4 g/ha: 25%
Digitaria sanguinalis; DIGSA POST, use rate 2 gai/ha
  % activity: 0%
Digitaria sanguinalis; DIGSA POST, use rate 8 gai/ha
  % activity: 75% and 50%
Digitaria sanguinalis; Digitaria sanguinalis, post-emergence, 432 h, POST, DIGSA, 2 gai/ha, 18 DAT, read-out: % activity solo application
  inhibition at 2 g/ha: 10%
Digitaria sanguinalis; Digitaria sanguinalis, post-emergence, 432 h, POST, DIGSA, 8 gai/ha, 18 DAT, read-out: % activity solo application
  inhibition at 8 g/ha: 10%
Digitaria sanguinalis; Digitaria sanguinalis, post-emergence, 432 h, POST, DIGSA, 18 DAT
  pest or weed control at 2 g/ha: 10%
Digitaria sanguinalis; Digitaria sanguinalis, post-emergence, 432 h, POST, DIGSA, I-3 solo 8 gai/ha, 18 DAT
  pest or weed control at 8 g/ha: 10%
Digitaria sanguinalis; Digitaria sanguinalis, post-emergence, 480 h, DIGSA POST, 20 DAT, use rate 8 gai/ha, read-out: % activity
  inhibition at 8 g/ha: 40%
Digitaria sanguinalis; Digitaria sanguinalis, post-emergence, 480 h, POST, 8 gai/ha, 20 DAT
  pest or weed control at 8 g/ha: 40%
Digitaria sanguinalis; Digitaria sanguinalis, post-emergence, 480 h, POST, DIGSA, 8 gai/ha, 20 DAT, read-out: % activity solo application
  inhibition at 8 g/ha: 85%
Digitaria sanguinalis; Digitaria sanguinalis, post-emergence, 480 h, POST, DIGSA, 20 DAT
  pest or weed control at 2 g/ha: 5%
Digitaria sanguinalis; Digitaria sanguinalis, post-emergence, 480 h, POST, DIGSA, use rate 8 gai/ha, 20 DAT, read-out: solo application % activity
  inhibition at 8 g/ha: 10%
Digitaria sanguinalis; POST, DIGSA, use rate 2 gai/ha, 20 DAT
  solo application % activity: 0%
Galium aparine; use rate 2 gai/ha
  inhibition at 2 g/ha: 15%
Galium aparine; use rate 8 gai/ha
  inhibition at 8 g/ha: 75%
Geranium pusillum; use rate 2 gai/ha
  inhibition at 2 g/ha: 0%
Geranium pusillum; use rate 8 gai/ha
  inhibition at 8 g/ha: 15%
Lolium multiflorum; 432 h, PRE, LOLMU, 2 gai/ha, 18 DAT, read-out: % activity solo application
  inhibition at 2 g/ha: 10%
Lolium multiflorum; 432 h, PRE, LOLMU, 8 gai/ha, 18 DAT, read-out: % activity solo application
  inhibition at 8 g/ha: 70%
Lolium multiflorum; 432 h, PRE, LOLMU, 18 DAT, read-out: % activity
  pest or weed control at 2 g/ha: 10%
Lolium multiflorum; 432 h, PRE, LOLMU, I-3 solo 8 gai/ha, 18 DAT
  pest or weed control at 8 g/ha: 70%
Lolium multiflorum; 480 h, LOLMU PRE, 20 DAT, use rate 8 gai/ha, read-out: % activity
  inhibition at 8 g/ha: 90%
Lolium multiflorum; 480 h, PRE, 8 gai/ha, 20 DAT
  pest or weed control at 8 g/ha: 90%
Lolium multiflorum; 480 h, PRE, LOLMU, 8 gai/ha, 20 DAT, read-out: % activity solo application
  inhibition at 8 g/ha: 95%
Lolium multiflorum; 480 h, PRE, LOLMU, 20 DAT, read-out: % activity
  pest or weed control at 2 g/ha: 25%
Lolium multiflorum; 480 h, PRE, LOLMU, use rate 2 gai/ha, 20 DAT, read-out: solo application % activity
  inhibition at 2 g/ha: 50%
Lolium multiflorum; 480 h, PRE, LOLMU, use rate 4 gai/ha, 20 DAT
  inhibition at 4 g/ha: 80%
Lolium multiflorum; 480 h, PRE, use rate 2 gai/ha, 20 DAT, read-out: % activity
  inhibition at 2 g/ha: 20%
Lolium multiflorum; PRE, LOLMU, use rate 2 gai/ha, read-out: % activity
  inhibition at 2 g/ha: 40%
Euphorbia heterophylla; 432 h, PRE, EPHHL, I-3 solo 2 gai/ha, 18 DAT
  pest or weed control at 2 g/ha: 15%
Euphorbia heterophylla; 432 h, PRE, EPHHL, I-3 solo 8 gai/ha, 18 DAT
  pest or weed control at 8 g/ha: 75%
Euphorbia heterophylla; 480 h, EPHHL PRE, 20 DAT, use rate 2 gai/ha, read-out: % activity
  inhibition at 2 g/ha: 0%
Euphorbia heterophylla; 480 h, EPHHL PRE, 20 DAT, use rate 8 gai/ha, read-out: % activity
  inhibition at 8 g/ha: 50%
Euphorbia heterophylla; 480 h, PRE, 8 gai/ha, 20 DAT
  pest or weed control at 8 g/ha: 50%
Euphorbia heterophylla; 480 h, PRE, EPHHL, 2 gai/ha, 20 DAT, read-out: % activity solo application
  inhibition at 2 g/ha: 5%
Euphorbia heterophylla; 480 h, PRE, EPHHL, 8 gai/ha, 20 DAT, read-out: % activity solo application
  inhibition at 8 g/ha: 50%
Euphorbia heterophylla; 480 h, PRE, EPHHL, I-3 solo 8 gai/ha, 20 DAT
  pest or weed control at 8 g/ha: 20%
Euphorbia heterophylla; 480 h, PRE, EPHHL, use rate 2 gai/ha, 20 DAT, read-out: solo application % activity
  inhibition at 2 g/ha: 10%
Euphorbia heterophylla; 480 h, PRE, EPHHL, use rate 8 gai/ha, 20 DAT, read-out: solo application % activity
  inhibition at 8 g/ha: 50%
Euphorbia heterophylla; EPHHL PRE, use rate 8 gai/ha, read-out: % activity
  inhibition at 8 g/ha: 55%
Euphorbia heterophylla; PRE, EPPHL, use rate 2 gai/ha, read-out: % activity
  inhibition at 2 g/ha: 45%
Euphorbia heterophylla; PRE, EPPHL, use rate 8 gai/ha, read-out: % activity
  inhibition at 8 g/ha: 80%
Abutilon theophrasti; 432 h, ABUTH, 18 DAT
  pest or weed control at 2 g/ha: 70%
Abutilon theophrasti; 480 h, 8 gai/ha, 20 DAT
  pest or weed control at 8 g/ha: 70%
Abutilon theophrasti; 480 h, ABUTH, 2 gai/ha, 20 DAT, read-out: % activity solo application
  inhibition at 2 g/ha: 25%
Abutilon theophrasti; 480 h, ABUTH, 8 gai/ha, 20 DAT, read-out: % activity solo application
  inhibition at 8 g/ha: 80%
Abutilon theophrasti; 480 h, ABUTH, 20 DAT
  pest or weed control at 2 g/ha: 10%
Abutilon theophrasti; 480 h, ABUTH, use rate 2 gai/ha, 20 DAT, read-out: solo application % activity
  inhibition at 2 g/ha: 25%
Abutilon theophrasti; 480 h, ABUTH, use rate 8 gai/ha, 20 DAT, read-out: % activity
  inhibition at 8 g/ha: 70%
Abutilon theophrasti; 480 h, ABUTH, use rate 8 gai/ha, 20 DAT, read-out: solo application % activity
  inhibition at 8 g/ha: 85%
Abutilon theophrasti; 480 h, use rate 2 gai/ha, 20 DAT, read-out: % activity
  inhibition at 2 g/ha: 10%
Abutilon theophrasti; ABUTH, use rate 2 gai/ha, read-out: % activity
  inhibition at 2 g/ha: 65%
Abutilon theophrasti; ABUTH, use rate 4 gai/ha
  inhibition at 4 g/ha: 65%
